Reference: US20090181975A1, “NEBIVOLOL IN THE TREATMENT OF SEXUAL DYSFUNCTION” (FOREST LABORATORIES HOLDINGS LIMITED, priority 2008, published 2009)
Blank lines part the entries; values can stand above or below the molecule they belong to.

How the values were obtained:
[1] = system: thiobarbituric acid reactive substances (TBARS) in rat serum; assay: Serum TBARS in STZ-diabetic rats; format: in vivo, rat (Sprague-Dawley); details: for effect on TBARS levels in diabetic rats: groups with and without sildenafil pooled
Method: Male Sprague-Dawley rats were used as a model for this study. Diabetes was induced by a single injection of streptozotocin (STZ, 60 mg/kg; i.p.) dissolved in 0.1 M citric acid/trisodic citrate buffer (pH 4-4.5) and was assessed by glycemia determination 72 h after induction. Animals were kept, with free access to food and water, for 8 weeks before experimental assays. Eight weeks after induction of diabetes, rats show altered in vivo vascular function (Angulo et al., Naunyn-Schmiedeberg's Arch Pharmacol, 358(5), 529-37, 1998) and reduced erectile responses (Angulo et al., J. Sex Med., 2, 341-346, 2005). Blood glucose concentration was determined each week and just before the experiment. Insulin levels were not determined. Blood was collected from the right ventricle, clotted in gel and centrifuged at 1500×g to obtain serum. Thiobarbituric acid reactive substances (TBARS) were determined by reacting thiobarbituric acid with serum samples at 70° C. for 30 min and reading absorbance at 532 nm. Serum concentrations of TBARS were determined by using malondialdehyde (MDA) as a standard. […] Results were expressed as ng/ml of MDA equivalents. […] After 10 days treatment, diabetic rats were anesthetized and erectile responses to cavernosal nerve electrical stimulation (CNES) were determined. After an equilibration period, the PDE-5 inhibitor sildenafil (0.3 mg/kg) or the vehicle (25% glycofurol) was intravenously administered. Forty five minutes later, erectile responses to CNES were again evaluated, and 5 min after CNES application, blood was collected for obtaining plasma and serum, and the penis was excised. Serum samples were immediately frozen until determinations of NOx and TBARS. Plasma and penile tissues were immediately frozen until determinations of cGMP.

[2] = system: cGMP in rat plasma; assay: Plasma cGMP content by ELISA; format: in vivo, rat (Sprague-Dawley)
Method: To determine the plasma cGMP content, Sprague-Dawley rats were anesthetized with urethane (1.25 g/kg). The right carotid artery was catheterized for constant blood pressure and heart rate measurement by means of a pressure transducer connected to a PowerLab data acquisition system (ADInstruments). The left external jugular vein was catheterized for saline or drug infusion. After administering the respective treatments, rat plasma samples were collected, immediately frozen and stored at −80° C. until extraction for cyclic nucleotide assay. cGMP was determined by ELISA using a kit from Cayman Chemical Co. Plasmatic cGMP levels were determined 10 minutes after nebivolol administration.

[3] = system: cGMP in rat plasma; assay: Plasma cGMP in STZ-diabetic rats; format: in vivo, rat (Sprague-Dawley)
Method: Male Sprague-Dawley rats were used as a model for this study. Diabetes was induced by a single injection of streptozotocin (STZ, 60 mg/kg; i.p.) dissolved in 0.1 M citric acid/trisodic citrate buffer (pH 4-4.5) and was assessed by glycemia determination 72 h after induction. Animals were kept, with free access to food and water, for 8 weeks before experimental assays. Eight weeks after induction of diabetes, rats show altered in vivo vascular function (Angulo et al., Naunyn-Schmiedeberg's Arch Pharmacol, 358(5), 529-37, 1998) and reduced erectile responses (Angulo et al., J. Sex Med., 2, 341-346, 2005). Blood glucose concentration was determined each week and just before the experiment. Insulin levels were not determined. Plasma samples were collected, immediately frozen and stored at −80° C. until extraction for cyclic nucleotide assay. Samples were then precipitated in ethanol, centrifuged and the supernatant was dried under a nitrogen stream. Penile tissues were rapidly immersed in liquid nitrogen and were stored at −80° C. until extraction for cyclic nucleotide assay. […] After 10 days treatment, diabetic rats were anesthetized and erectile responses to cavernosal nerve electrical stimulation (CNES) were determined. After an equilibration period, the PDE-5 inhibitor sildenafil (0.3 mg/kg) or the vehicle (25% glycofurol) was intravenously administered. Forty five minutes later, erectile responses to CNES were again evaluated, and 5 min after CNES application, blood was collected for obtaining plasma and serum, and the penis was excised. Serum samples were immediately frozen until determinations of NOx and TBARS. Plasma and penile tissues were immediately frozen until determinations of cGMP.

[4] = system: human penile resistance arteries (HPRA); assay: Relaxation of human penile resistance arteries contracted with U46619 (myograph); format: cell-based; design: effect on endothelium-dependent relaxation of HPRA caused by acetylcholine / effect on sildenafil-mediated relaxation of HPRA: unit of the concentration uncertain; details: for effect on endothelium-dependent relaxation of HPRA caused by acetylcholine: metoprolol (1 (unit uncertain)), nebivolol (0.3 (unit uncertain))
Method: Specimens of human corpus cavernosum were obtained from organ donors and from impotent men at the time of penile prosthesis implantation. Tissues were placed in ice-cold M-400 solution (pH 7.4; 400 mOsm/kg, composition in w/v: 4.19% manitol, 0.2% KH2PO4, 0.97% K2HPO4.3H2O, 0.11% KCl and 0.08% NaHCO3) at the time of removal and transported to the laboratory for utilization within 16 h.
To determine the resistance of penile small arteries, helicine arteries (lumen diameter 150-400 μm) which are the terminal branches of deep penile arteries, were dissected by carefully removing the adhering trabecular tissue, and arterial ring segments (2 mm long) were subsequently mounted on two 40 μm wires on microvascular double Halpern-Mulvany myographs (J.P. Trading, Aarhus, Denmark) for isometric tension recordings. The chambers were filled with PSS continuously bubbled with 95% O2/5% CO2 mixture to maintain a pH of 7.4. […]

[5] = system: diabetic rats; assay: Glycemia, arterial pressure and heart rate in STZ-diabetic rats after 10 days s.c. treatment; format: in vivo, rat (Sprague-Dawley); details: 3 or 10 mg/kg/day s.c. for 10 days
Method: Male Sprague-Dawley rats were used as a model for this study. Diabetes was induced by a single injection of streptozotocin (STZ, 60 mg/kg; i.p.) dissolved in 0.1 M citric acid/trisodic citrate buffer (pH 4-4.5) and was assessed by glycemia determination 72 h after induction. Animals were kept, with free access to food and water, for 8 weeks before experimental assays. Eight weeks after induction of diabetes, rats show reduced erectile responses (Angulo et al., Naunyn-Schmiedeberg's Arch Pharmacol, 358(5), 529-37, 1998; Angulo et al., J. Sex Med., 2, 341-346, 2005). Blood glucose concentration was determined each week and just before the experiment. Insulin levels were not determined. […] After this period of treatment, the diabetic rats were anesthetized and ICP responses to electrical stimulation were evaluated. After an equilibration period, the PDE5 inhibitor sildenafil (0.3 mg/kg) or the vehicle (25% glycofurol) was intravenously administered. Forty five minutes later, ICP responses were again determined

[6] = system: anesthetized rats; assay: Mean arterial pressure (MAP) and heart rate (HR) in anesthetized rats; format: in vivo, rat (Sprague-Dawley)
Method: To determine blood pressure and heart rate, Sprague-Dawley rats (250-400 g) were anesthetized with ketolar and diazepam. The right carotid artery was catheterized for constant blood pressure and heart rate measurement by means of a pressure transducer connected to a PowerLab data acquisition system (ADInstruments). The left external jugular vein was catheterized for saline or drug infusion. 3 mg/kg nebivolol (n=6) or vehicle (50% glycofurol; n=4) was administered intravenously in anesthetized rats and MAP and HR were measured. […] The effect of nebivolol in combination with the type 5 phosphodiesterase (PDE-5) inhibitor sildenafil on hypotension and heart rate was studied in rats using the methods described above.

[7] = 3 mg/kg i.v., vs vehicle (50% glycofurol)
[8] = nebivolol 1 mg/kg i.v., pre-treatment sildenafil 0.3 mg/kg i.v.
[9] = nebivolol 3 mg/kg i.v., L-NAME 3 mg/kg, ODQ 1 mg/kg, propranolol 1 mg/kg, sildenafil 0.3 mg/kg i.v.

EC50 ([4]; Homo sapiens, nebivolol 1 nM to 10 μM, read-out: EC50, endothelium-dependent vasodilation of HPRA): 24.4 nM
Structure (SMILES): OC(CNCC(O)C1CCc2cc(F)ccc2O1)C1CCc2cc(F)ccc2O1 (racemic) [nebivolol, α,α′-iminobis(methylene)bis[6-fluoro-2-chromanmethanol]]
effect on TBARS levels in diabetic rats ([1]; 10 mg/kg/day for 10 days): significant reduction
effect on TBARS levels in diabetic rats ([1]; administered for 10 days): trend to reduce
increase in plasma cGMP levels ([2]; 3 mg/kg i.v., 10 minutes after administration, percentage of cGMP concentration before administration (FIG. 15)): 177±38%
interaction with sildenafil on plasma cGMP levels ([2]; combination of sildenafil and nebivolol): synergistically increases plasma cGMP levels
plasma cGMP levels after combined administration with sildenafil ([2]; nebivolol 3 mg/kg + sildenafil 0.3 mg/kg i.v.): marked increase of cGMP levels
plasma cGMP levels after combining sildenafil with nebivolol, dose-dependent ([2]; nebivolol 1 and 3 mg/kg + sildenafil 0.3 mg/kg i.v.): significant further increase
effect on plasma cGMP content in diabetic rats ([3]; 3 and 10 mg/kg/day for 10 days): did not result in significant modifications
influence on the effects of sildenafil on plasma cGMP content in diabetic rats ([3]; 3 and 10 mg/kg/day for 10 days, sildenafil 0.3 mg/kg i.v.): did not influence
Emax ([4]; Homo sapiens, nebivolol 1 nM to 10 μM, read-out: Emax, endothelium-dependent vasodilation of HPRA): 59.1 ± 10.3%
relaxation of HPRA compared with metoprolol or atenolol ([4]; U46619 30-100 nM): significantly more potent than those caused by metoprolol or atenolol
relaxation of HPRA by cumulative addition ([4]; U46619 30-100 nM, 1 nM to 0.1 mM): marked relaxations
effect on endothelium-dependent relaxation of HPRA caused by acetylcholine ([4]; atenolol (1 (unit uncertain))): not affected
effect on sildenafil-mediated relaxation of HPRA ([4]; nebivolol (1 (unit uncertain)), atenolol (1 (unit uncertain))): able to enhance
effect on arterial pressure in diabetic rats [5]: Neither diabetes nor either drug treatment (nebivolol or atenolol) significantly affected
effect on heart rate in diabetic rats [5]: further reduced
effect on blood pressure ([6]; 1 mg/kg i.v.): hypotensive and bradycardic effects of moderate intensity
effect on heart rate ([6]; 1 mg/kg i.v.): hypotensive and bradycardic effects of moderate intensity
effect on heart rate (HR) [6, 7]: significant reduction of heart rate
effect on mean arterial pressure (MAP) [6, 7]: significant hypotensive effect

Structure (SMILES): CC(C)NCC(O)COc1ccc(CC(N)=O)cc1 (stereo not drawn) [atenolol]
effect on endothelium-dependent relaxation of HPRA caused by acetylcholine ([4]; atenolol (1 (unit uncertain))): not affected
effect on arterial pressure in diabetic rats [5]: Neither diabetes nor either drug treatment (nebivolol or atenolol) significantly affected
effect on heart rate in diabetic rats [5]: further reduced

Structure (SMILES): CCCc1nn(C)c2c(=O)[nH]c(-c3cc(S(=O)(=O)N4CCN(C)CC4)ccc3OCC)nc12 [sildenafil]
influence on serum TBARS levels ([1]; sildenafil 0.3 mg/kg i.v.): did not significantly influence
effect on plasma cGMP levels ([2]; i.v.: atenolol 3 mg/kg, sildenafil 0.3 mg/kg, sodium nitroprusside 0.1 mg/kg): augmented cGMP up to similar levels than nebivolol
effect on plasma cGMP levels in diabetic and non diabetic rats ([3]; sildenafil 0.3 mg/kg i.v.): marked increase
effect on blood pressure drop caused by nebivolol [6, 8]: significantly enhanced
effect on reduction of heart rate caused by nebivolol [6, 8]: not modified
effect on heart rate reduction caused by nebivolol [6, 9]: did not significantly alter
effect on hypotension caused by nebivolol [6, 9]: did not significantly alter
